The molecules below were run against T1, Caspase-1 (Homo sapiens, UniProt P29466) (assay: Inhibition of human recombinant IL-1 beta converting enzyme).
T1 sequence (P29466 whole entry): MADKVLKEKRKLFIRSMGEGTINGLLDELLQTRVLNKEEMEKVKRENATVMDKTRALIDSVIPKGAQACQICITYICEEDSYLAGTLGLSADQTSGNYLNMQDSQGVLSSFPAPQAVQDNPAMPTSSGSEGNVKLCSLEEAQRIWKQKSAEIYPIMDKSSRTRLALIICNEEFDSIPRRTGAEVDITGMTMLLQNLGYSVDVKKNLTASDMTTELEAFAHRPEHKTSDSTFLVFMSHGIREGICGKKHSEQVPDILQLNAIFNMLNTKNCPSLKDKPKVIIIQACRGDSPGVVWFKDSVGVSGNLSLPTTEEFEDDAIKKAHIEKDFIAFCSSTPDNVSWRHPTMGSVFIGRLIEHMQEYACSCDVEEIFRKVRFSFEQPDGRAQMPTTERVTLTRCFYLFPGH
Work on `CCC(C(=O)NC(CC(=O)O)C(=O)CN1CCC(C(N)=O)CC1)n1cccc(NC(=O)c2ccc3ccccc3c2)c1=O` (stereo not given) yielded a Ki of 11.6 nM.
Work on `CCC(C(=O)NC(CC(=O)O)C(=O)CN1CCN(C)CC1)n1cccc(NC(=O)c2ccc3ccccc3c2)c1=O` (stereo not given) yielded a Ki of 62.5 nM.
Work on `CCCCCCN(C)CC(=O)[C@H](CC(=O)O)NC(=O)C(CC)n1cccc(NC(=O)c2ccc3ccccc3c2)c1=O` (stereo not given in full) yielded a Ki of 1.79 nM.
For `CCCC(=O)NCC(=O)C(CC(=O)O)NC(=O)C(CC)n1cccc(NC(=O)c2ccc3ccccc3c2)c1=O` (stereo not given), the Ki was 81 nM.
In the case of `CCC(C(=O)N[C@@H](CC(=O)O)C(=O)CN[C@@H](Cc1ccccc1)C(N)=O)n1cccc(NC(=O)c2ccc3ccccc3c2)c1=O` (stereo not given in full), the Ki is reported as 78 nM.
For `CCCCCCN(CCCCCC)CC(=O)[C@H](CC(=O)O)NC(=O)C(CC)n1cccc(NC(=O)c2ccc3ccccc3c2)c1=O` (stereo not given in full), the Ki was 2.39 nM.
With `CCC(C(=O)N[C@@H](CC(=O)O)C(=O)CN[C@H](Cc1ccccc1)C(N)=O)n1cccc(NC(=O)c2ccc3ccccc3c2)c1=O` (stereo not given in full) the Ki was 25 nM.
For `CCC(C(=O)N[C@@H](CC(=O)O)C(=O)CN(C)CCc1ccccc1)n1cccc(NC(=O)c2ccc3ccccc3c2)c1=O` (stereo not given in full), the Ki was 4.8 nM.
With `CCC(C(=O)N[C@@H](CC(=O)O)C(=O)CN(C)Cc1ccccc1)n1cccc(NC(=O)c2ccc3ccccc3c2)c1=O` (stereo not given in full) the Ki was 58 nM.
`CCC(C(=O)N[C@@H](CC(=O)O)C(=O)CN(C)CCCC(N)=O)n1cccc(NC(=O)c2ccc3ccccc3c2)c1=O` (stereo not given in full) gave a Ki of 37 nM.
With `CCCCCC(=O)NCC(=O)C(CC(=O)O)NC(=O)C(CC)n1cccc(NC(=O)c2ccc3ccccc3c2)c1=O` (stereo not given) the Ki was 34.3 nM.
With `CCC(C(=O)N[C@@H](CC(=O)O)C(=O)CN(C)C)n1cccc(NC(=O)c2ccc3ccccc3c2)c1=O` (stereo not given in full) the Ki was 22.8 nM.
`CCCCNCC(=O)[C@H](CC(=O)O)NC(=O)C(CC)n1cccc(NC(=O)c2ccc3ccccc3c2)c1=O` (stereo not given in full) gave a Ki of 0.76 nM.
For `CCCCCCNCC(=O)[C@H](CC(=O)O)NC(=O)C(CC)n1cccc(NC(=O)c2ccc3ccccc3c2)c1=O` (stereo not given in full), the Ki was 0.85 nM.
`CCC(C(=O)N[C@@H](CC(=O)O)C(=O)CNCCCc1ccccc1)n1cccc(NC(=O)c2ccc3ccccc3c2)c1=O` (stereo not given in full) gave a Ki of 1.15 nM.
`CCCCN(C)CC(=O)[C@H](CC(=O)O)NC(=O)C(CC)n1cccc(NC(=O)c2ccc3ccccc3c2)c1=O` (stereo not given in full) was tested, and the Ki was 3.1 nM.
Work on `CCC(C(=O)NC(CC(=O)O)C(=O)Cn1ccccc1=O)n1cccc(NC(=O)c2ccc3ccccc3c2)c1=O` (stereo not given) yielded a Ki of 1650 nM.
Work on `CCC(C(=O)N[C@@H](CC(=O)O)C(=O)CNCCc1ccccc1)n1cccc(NC(=O)c2ccc3ccccc3c2)c1=O` (stereo not given in full) yielded a Ki of 0.37 nM.
Molecule `CCC(C(=O)NC(CC(=O)O)C(=O)CN1CCOCC1)n1cccc(NC(=O)c2ccc3ccccc3c2)c1=O` (stereo not given) has a Ki of 45 nM.
`CCC(C(=O)N[C@@H](CC(=O)O)C(=O)CN(C)[C@@H](Cc1ccccc1)C(N)=O)n1cccc(NC(=O)c2ccc3ccccc3c2)c1=O` (stereo not given in full) gave a Ki of 255 nM.
`CCCCN(CC)CC(=O)[C@H](CC(=O)O)NC(=O)C(CC)n1cccc(NC(=O)c2ccc3ccccc3c2)c1=O` (stereo not given in full) showed a Ki of 2.3 nM.
`CCC(C(=O)NC(CC(=O)O)C(=O)CNC(C)=O)n1cccc(NC(=O)c2ccc3ccccc3c2)c1=O` (stereo not given) was tested, and the Ki was 117 nM.
Work on `CCOC(=O)C1CCN(CC(=O)C(CC(=O)O)NC(=O)C(CC)n2cccc(NC(=O)c3ccc4ccccc4c3)c2=O)CC1` (stereo not given) yielded a Ki of 8 nM.
`CCC(C(=O)NC(CC(=O)O)C(=O)CNC(=O)c1ccccc1)n1cccc(NC(=O)c2ccc3ccccc3c2)c1=O` (stereo not given) was tested, and the Ki was 57.5 nM.
`CCC(C(=O)NC(CC(=O)O)C(=O)CN1CCNCC1)n1cccc(NC(=O)c2ccc3ccccc3c2)c1=O` (stereo not given) was tested, and the Ki was 410 nM.
`CCC(C(=O)NC(CC(=O)O)C(=O)CN1CCCCC1)n1cccc(NC(=O)c2ccc3ccccc3c2)c1=O` (stereo not given) gave a Ki of 4 nM.
`CCC(C(=O)N[C@@H](CC(=O)O)C(=O)CNCc1ccccc1)n1cccc(NC(=O)c2ccc3ccccc3c2)c1=O` (stereo not given in full) gave a Ki of 3.05 nM.
For `CCC(C(=O)NC(CC(=O)O)C(=O)CN1CCCC1)n1cccc(NC(=O)c2ccc3ccccc3c2)c1=O` (stereo not given), the Ki was 7.3 nM.
`CCC(C(=O)NC(CC(=O)O)C(=O)CN1CCSCC1)n1cccc(NC(=O)c2ccc3ccccc3c2)c1=O` (stereo not given) showed a Ki of 11.2 nM.
`CCC(C(=O)NC(CC(=O)O)C(=O)Cn1ccc(=O)cc1)n1cccc(NC(=O)c2ccc3ccccc3c2)c1=O` (stereo not given) was tested, and the Ki was 395 nM.
